Tests used:
Type in all cases: functional
[1] = test system: Staphylococcus capitis; test: Antibacterial activity against Staphylococcus capitis ATCC 2784 assessed as decrease in survival at 0.5 M by turbidimetric method
[2] = test system: Staphylococcus capitis; test: Antibacterial activity against Staphylococcus capitis ATCC 2784 assessed as decrease in survival at 1.3 M by turbidimetric method
[3] = test system: Escherichia coli; test: Antibacterial activity against Escherichia coli XL-1 blue assessed as decrease in survival at 50 x 10^-6 M by turbidimetric method
[4] = test system: Staphylococcus capitis; test: Antibacterial activity against Staphylococcus capitis ATCC 2784 assessed as decrease in survival at 50 x 10^-6 M by turbidimetric method

SMILES	Activity [1] [%]	Activity [2] [%]	Activity [3] [%]	Activity [4] [%]
CN(C)C=O [DIMETHYLFORMAMIDE]	10	80		
COc1c(/C=N/CC/N=C/c2c(O)cc3oc(C)cc(=O)c3c2OC)c(O)cc2oc(C)cc(=O)c12			54	40
COc1c(/C=N/CCC/N=C/c2c(O)cc3oc(C)cc(=O)c3c2OC)c(O)cc2oc(C)cc(=O)c12			30	55
Cc1cc(=O)c2c(O)c(/C=N/CCC/N=C/c3c(O)cc4oc(C)cc(=O)c4c3O)c(O)cc2o1			35	70
Cc1cc(=O)c2c(O)c(/C=N/CC/N=C/c3c(O)cc4oc(C)cc(=O)c4c3O)c(O)cc2o1			60	50

Reference: ChEMBL document CHEMBL1156257, “Antibacterial effect of some benzopyrone derivatives” (2010)
